Data published in patent publication US20060223747A1, “Therapeutic agent for soft tissue sarcoma” (Fujisawa Pharmaceutical Co. Ltd., priority 2003, published 2006).

Tests used:
[1] = tested on: SYO-1 synovial sarcoma cell strain (SYT-SSX protein expressing); assay: MTT cell growth assay, SYO-1 synovial sarcoma cell strain; format: cell-based; conditions: SYO-1 cells; FK228 0.1-100 nM; exposure 24, 48, 96 hr; FIG. 3
Description: (§1) An SYT-SSX protein expressing synovial sarcoma cell line HS-SY-2 (established and kindly provided by Dr. Hiroshi Sonobe, Department of Pathology, National Fukuyama Hospital), YaFuSS (established and kindly provided by Dr. Junya Toguchida, Department of Tissue Regeneration, Institute for Frontier Medical Sciences, Kyoto University) and SYO-1 (established and kindly provided by Dr. Akira Kawai, Department of Orthopedics, Faculty of Medicine, Okayama University (now Department of Orthopedics, National Cancer Center)) were cultured in DMEM (Dulbecco's modified Eagle's medium) containing 10% (v/v) fetal bovine serum (FBS), 100 U/ml penicillin and 100 μg/ml streptomycin at 37° C. under 5% CO2 environment. These cells were plated and cultured for 24 hr, detached with 0.25% (w/v) trypsin and recovered. For cell growth ability, an MTT analysis kit (Colorimetric (MTT) assay for cell survival and proliferation kit of CHEMICON International, Inc.) was used. Each cell strain was plated in a 96 well microtiter plate at 10^3 cell/well, and after culture for 24 hr, exposed to a 0.1% (v/v) dilute ethanol solution of FK228 at a concentration distribution of 0.1 nM, 0.2 nM, 1 nM, 50 nM and 100 nM, and 0.1% (v/v) ethanol (Et-OH 0.1% in FIG. 1) as a control. After exposure for 24 hr, 48 hr and 96 hr, each culture was passed through a 570 nm filter and the absorbance was measured. […]

[2] = tested on: YaFuSS synovial sarcoma cell strain (SYT-SSX protein expressing); assay: MTT cell growth assay, YaFuSS synovial sarcoma cell strain; format: cell-based; conditions: YaFuSS cells; FK228 0.1-100 nM; exposure 24, 48, 96 hr; FIG. 2
Description: as §1

[3] = tested on: histone deacetylase; conditions: reported in JP-B-7-64872; Experimental Cell Research (1998) 241, 126-133; cited from earlier work
[4] = tested on: SYO-1 synovial sarcoma cell strain (SYT-SSX protein expressing); assay: Tumor volume after subcutaneous implantation of SYO-1 cells in nude mice; format: in vivo, BALB/C/nu/nu nude mice; conditions: for antitumor activity in vivo against SYT-SSX protein expressing cells: summary statement
Protocol: Inbred male (BALB/C/nu/nu) nude mice were supplied by Charles River Japan, Inc. The animals were all fed and handled according to the Animal Test Guideline, Animal Resources Division, Advanced Science Research Center, Okayama University. FK228 was administered after 10 days from subcutaneous implantation of 10^5 cells each of the SYO-1 cell strain. The tumor volume was assumed by measuring two diameters perpendicular to each other using calipers and from the following formula (tumor volume=⅙π [(d1×d2)^3/2] (wherein d1 and d2 are two perpendicular diameters)). The dose was evaluated by intravenously administering a dilute FK228 solution (50 μl, 10% HCO60 which is polyoxyethylene (60) hydrogenated castor oil, diluted with physiological saline) at 0 mg/kg, 1.6 mg/kg or 3.2 mg/kg to 20 animals, and as a control, a 3.2 mg/kg dilute FK228 solution was intravenously injected to 7 animals free of tumor implantation. The administration was performed 3 times every 4 days, the tumor volume was also measured every 4 days, as well as after completion of the administration.

[5] = tested on: SYT-SSX protein expressing cells (HS-SY-2, YaFuSS, SYO-1); assay: In vitro antitumor activity against SYT-SSX protein expressing cells (summary statement); format: cell-based
Description: In an attempt to solve the above-mentioned problems, the present inventors have considered that, in synovial sarcoma, formation of the aforementioned complex of SYT-SSX protein, a chromatin remodeling-associated protein and histone deacetylase (HDAC)-associated protein enhances histone deacetylase activity, which in turn has an effect on the canceration, development and/or proliferation, of synovial sarcoma, and have conducted intensive studies of the effect of histone deacetylase inhibition on various synovial sarcoma cell strains (HS-SY-2, YaFuSS, SYO-1) that express SYT-SSX protein. […]

[6] = tested on: HS-SY-2 synovial sarcoma cell strain (SYT-SSX protein expressing); assay: MTT cell growth assay, HS-SY-2 synovial sarcoma cell strain; format: cell-based; conditions: HS-SY-2 cells; FK228 0.1-100 nM; exposure 24, 48, 96 hr; FIG. 1
Description: as §1

[7] = tested on: HTB93 synovial sarcoma cell strain (SW982; not expressing SYT-SSX protein); assay: MTT cell growth assay (survival rate), HTB93 synovial sarcoma cell strain; format: cell-based; conditions: for antitumor activity against synovial sarcoma cell strain not expressing SYT-SSX protein: summary statement, HTB93 (SW982)
Protocol: An SYT-SSX protein non-expressing synovial sarcoma cell line HTB93 (purchased from ATCC: American Type Culture Collection) was cultured in DMEM (Dulbecco's modified Eagle's medium) containing 10% (v/v) fetal bovine serum (FBS), 100 U/ml penicillin and 100 μg/ml streptomycin at 37° C. under 5% CO2 environment. These cells were plated and cultured for 24 hr, detached with 0.25% (w/v) trypsin and recovered. For cell growth ability, an MTT analysis kit (Colorimetric MTT) assay for cell survival and proliferation kit of CHEMICON International, Inc.) was used. Each cell strain was plated in a 96 well microtiter plate at 2×10^3 cell/well, and after culture for 24 hr, exposed to a 0.1% (v/v) dilute ethanol solution of FK228 at a concentration distribution of 0.001 nM, 0.01 nM, 0.1 nM, 0.5 nM, 1 nM, 5 nM, 10 nM, 50 nM and 100 nM, 0.1% (v/v) ethanol as a control and the medium alone as a blank. After exposure for 24 hr, 48 hr, 72 hr and 96 hr, each culture was passed through a 570 nm filter and the absorbance was measured. All were performed with n=4.
For the results, average values of the FK228 addition sample, control and blank were taken, and using numerical values obtained by subtracting a blank value from the value of the FK228 addition sample or control, a percentage corresponding to the ratio of the numerical value of the FK228 addition sample relative to that of the control was taken as survival rate (%).

C/C=C1\NC(=O)[C@H]2CSSCC/C=C/[C@H](CC(=O)N[C@H](C(C)C)C(=O)N2)OC(=O)[C@H](C(C)C)NC1=O [FK228]
in vitro antitumor effect [1]: showed an in vitro antitumor effect
in vitro antitumor effect [2]: showed an in vitro antitumor effect
histone deacetylase inhibition [3]: selectively inhibits histone deacetylase
in vivo antitumor effect (tumor volume) ([4]; SYO-1 subcutaneous implant, i.v. 1.6 or 3.2 mg/kg, 3 times every 4 days, FIG. 4): showed an in vivo antitumor effect
antitumor activity in vivo against SYT-SSX protein expressing cells [4]: potent antiturnor activity
antitumor activity in vitro against SYT-SSX protein expressing cells [5]: potent antiturnor activity
in vitro antitumor effect [6]: showed an in vitro antitumor effect
in vitro antitumor effect (survival rate) ([7]; HTB93 cells, FK228 0.001-100 nM, exposure 24, 48, 72, 96 hr, FIG. 5): showed an in vitro antitumor effect
antitumor activity against synovial sarcoma cell strain not expressing SYT-SSX protein [7]: potent antitumor activity

C/C=C1\NC(=O)C2CSSCC/C=C/C(CCNC(C(C)C)C(=O)N2)OC(=O)C(C(C)C)NC1=O (stereo not shown) [compound A]
histone deacetylase inhibition [3]: selectively inhibits histone deacetylase

CC(/C=C/C(=O)NO)=C\[C@@H](C)C(=O)c1ccc(N(C)C)cc1 [tricostatin A, Trichostatin A, reference compound]
antitumor activity in vivo against SYT-SSX protein expressing cells [4]: potent antiturnor activity
antitumor activity in vitro against SYT-SSX protein expressing cells [5]: potent antiturnor activity
antitumor activity against synovial sarcoma cell strain not expressing SYT-SSX protein [7]: potent antitumor activity
